From patent publication US10508108B2, “Tricyclic compounds as inhibitors of mutant IDH enzymes” (Merck Sharp & Dohme Corp., priority 2014, dated 2019)

Target: R132H mutant IDH1 enzyme (Homo sapiens (Human), UniProt O75874, R132H)
Assay: R132H IDH1 Enzymatic Assay
Assay type: biochemical
Settings: R132H mutant IDH1 enzyme 1.5 nM final; luminescence (Kinase-GLO) readout
Method: R132H IDH1 Enzymatic Assay
Luminescence is measured using a PerkinElmer Envision plate reader.

Sequence of R132H mutant IDH1 enzyme (O75874 whole entry R132H): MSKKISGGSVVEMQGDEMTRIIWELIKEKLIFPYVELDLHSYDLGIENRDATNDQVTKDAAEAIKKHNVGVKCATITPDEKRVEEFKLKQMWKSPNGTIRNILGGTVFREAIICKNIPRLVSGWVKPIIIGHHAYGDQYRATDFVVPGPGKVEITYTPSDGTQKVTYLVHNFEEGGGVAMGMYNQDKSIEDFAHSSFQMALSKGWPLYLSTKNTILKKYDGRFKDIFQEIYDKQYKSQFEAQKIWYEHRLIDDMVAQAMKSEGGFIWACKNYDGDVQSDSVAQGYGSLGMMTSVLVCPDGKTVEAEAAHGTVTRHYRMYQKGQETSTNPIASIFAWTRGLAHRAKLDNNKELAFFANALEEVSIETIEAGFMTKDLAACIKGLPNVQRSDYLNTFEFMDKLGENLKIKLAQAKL

Structure (SMILES) | IC50 [µM]
CC(C)[C@@H]1COC(=O)N1c1ccc2c(c1)N(C(=O)[C@]13C[C@H]4C[C@H](C[C@H](C4)C1)C3)Cc1cccnc1N2 [Example 119, (4R)-4-(1-Methylethyl)-3-{6-[(3S,5S,7S)-tricyclo[3.3.1.1˜3,7˜]dec-1-ylcarbonyl]-6,11-dihydro-5H-pyrido[2,3-b][1,5]benzodiazepin-8-yl}-1,3-oxazolidin-2-one] | 0.022
COC1CC2CCC(C1)C2C(=O)N1Cc2cccnc2Nc2ccc(N3CCOCC3)cc21 (centres unmarked) [Example 1, 6-{[(3r,8r)-3-Methoxybicyclo[3.2.1]oct-8-yl]carbonyl}-8-morpholin-4-yl-6,11-dihydro-5H-pyrido[2,3-b][1,5]benzodiazepine] | 1.05
COC1CC2CCC(C1)C2C(=O)N1Cc2cccnc2Nc2ccc(N3CCOCC3)cc21 (centres unmarked) [Example 2, 6-{[(3s,8s)-3-methoxybicyclo[3.2.1]oct-8-yl]carbonyl}-8-morpholin-4-yl-6,11-dihydro-5H-pyrido[2,3-b][1,5]benzodiazepine] | 0.226
O=C(C1C[C@H]2COC[C@@H](C1)N2CC(F)(F)F)N1Cc2cccnc2Nc2ccc(N3C[C@H]4CC[C@@H]3CO4)cc21 (stereo partly drawn) [Example 129, (8-((1R,4R)-2-Oxa-5-azabicyclo[2.2.2]octan-5-yl)-5,11-dihydro-6H-benzo[b]pyrido[2,3-e][1,4]diazepin-6-yl)((1R,5S)-9-(2,2,2-trifluoroethyl)-3-oxa-9-azabicyclo[3.3.1]nonan-7-yl)methanone] | 0.006
O=C(C1C[C@H]2COC[C@@H](C1)N2CC(F)(F)F)N1Cc2cccnc2Nc2ccc(N3C[C@@H]4CC[C@H]3CO4)cc21 (stereo partly drawn) [Example 130, (8-((1 S,4S)-2-oxa-5-azabicyclo[2.2.2]octan-5-yl)-5,11-dihydro-6H-benzo[b]pyrido[2,3-e][1,4]diazepin-6-yl)((1R,5S)-9-(2,2,2-trifluoroethyl)-3-oxa-9-azabicyclo[3.3.1]nonan-7-yl)methanone] | 0.005
